Source: ChEMBL document CHEMBL5550132, “Structure-activity relationship in NOD2 agonistic muramyl dipeptides” (Eur J Med Chem, 2024)

Columns and labels:
[1] = target: T1, Nuclear factor NF-kappa-B complex (Homo sapiens) (UniProt Q00653+P19838+Q04206); test: Activation of NF-KappaB (unknown origin) expressed in HEK293T cells assessed as fold change at 10 nM incubated for 12 hrs by Renilla luciferase assay; format: cell-based; conditions: filed as activator
[2] = target: T1, Nuclear factor NF-kappa-B complex (Homo sapiens); test: Activation of NF-KappaB (unknown origin) expressed in HEK293T cells assessed as fold change at 1000 nM incubated for 12 hrs by Renilla luciferase assay; format: cell-based; conditions: filed as activator
[3] = target: T1, Nuclear factor NF-kappa-B complex (Homo sapiens); test: Activation of NF-KappaB (unknown origin) expressed in HEK293T cells assessed as fold change at 10 ng incubated for 12 hrs by Renilla luciferase assay; format: cell-based; conditions: filed as activator
[4] = target: T1, Nuclear factor NF-kappa-B complex (Homo sapiens); test: Activation of NF-KappaB (unknown origin) expressed in HEK293T cells assessed as fold change at 100 nM incubated for 12 hrs by Renilla luciferase assay; format: cell-based; conditions: filed as activator
Cavia porcellus [5] = organism: Cavia porcellus; test: Induction of delayed type hypersensitivity in ABA-BSA immunized Hartley Guinea pigs assessed as reduction in skin lesions at 100 ug measured for 24 hrs; format: functional; conditions: dose 100 µg
Cavia porcellus [6] = organism: Cavia porcellus; test: Induction of delayed type hypersensitivity in ABA-BSA immunized Hartley Guinea pigs assessed as reduction in skin lesions at 100 ug measured for 48 hrs; format: functional; conditions: dose 100 µg
[7] = target: T1, Nuclear factor NF-kappa-B complex (Homo sapiens); test: Activation of NF-KappaB (unknown origin) expressed in HEK293T cells assessed as fold change at 1 uM incubated for 12 hrs by Renilla luciferase assay; format: cell-based; conditions: filed as activator

T1 sequence (P19838 whole entry, looked up): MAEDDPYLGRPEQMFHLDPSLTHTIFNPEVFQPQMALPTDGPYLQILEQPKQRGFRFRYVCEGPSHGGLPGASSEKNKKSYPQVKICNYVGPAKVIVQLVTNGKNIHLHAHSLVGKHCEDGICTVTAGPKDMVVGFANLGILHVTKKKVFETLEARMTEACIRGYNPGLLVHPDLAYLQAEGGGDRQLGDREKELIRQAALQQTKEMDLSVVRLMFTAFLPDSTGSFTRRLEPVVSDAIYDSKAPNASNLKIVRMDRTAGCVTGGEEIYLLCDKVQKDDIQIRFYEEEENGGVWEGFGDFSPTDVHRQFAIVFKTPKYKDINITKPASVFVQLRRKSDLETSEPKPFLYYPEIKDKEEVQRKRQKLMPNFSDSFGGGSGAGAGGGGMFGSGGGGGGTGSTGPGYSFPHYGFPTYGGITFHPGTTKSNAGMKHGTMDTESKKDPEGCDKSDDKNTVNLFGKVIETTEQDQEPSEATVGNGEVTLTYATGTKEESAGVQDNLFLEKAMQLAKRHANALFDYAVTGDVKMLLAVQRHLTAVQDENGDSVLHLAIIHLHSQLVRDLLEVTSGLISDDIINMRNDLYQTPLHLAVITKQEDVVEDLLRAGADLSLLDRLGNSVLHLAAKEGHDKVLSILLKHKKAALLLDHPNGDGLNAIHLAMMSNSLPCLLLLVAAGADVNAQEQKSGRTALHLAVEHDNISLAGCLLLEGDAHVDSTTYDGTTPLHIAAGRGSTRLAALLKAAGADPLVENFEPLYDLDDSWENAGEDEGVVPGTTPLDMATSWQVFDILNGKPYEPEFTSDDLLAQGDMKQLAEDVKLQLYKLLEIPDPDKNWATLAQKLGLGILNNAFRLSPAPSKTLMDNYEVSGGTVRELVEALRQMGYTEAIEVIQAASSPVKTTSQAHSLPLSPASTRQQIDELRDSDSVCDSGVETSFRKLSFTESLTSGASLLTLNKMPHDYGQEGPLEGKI
T1 sequence (Q00653 whole entry, looked up): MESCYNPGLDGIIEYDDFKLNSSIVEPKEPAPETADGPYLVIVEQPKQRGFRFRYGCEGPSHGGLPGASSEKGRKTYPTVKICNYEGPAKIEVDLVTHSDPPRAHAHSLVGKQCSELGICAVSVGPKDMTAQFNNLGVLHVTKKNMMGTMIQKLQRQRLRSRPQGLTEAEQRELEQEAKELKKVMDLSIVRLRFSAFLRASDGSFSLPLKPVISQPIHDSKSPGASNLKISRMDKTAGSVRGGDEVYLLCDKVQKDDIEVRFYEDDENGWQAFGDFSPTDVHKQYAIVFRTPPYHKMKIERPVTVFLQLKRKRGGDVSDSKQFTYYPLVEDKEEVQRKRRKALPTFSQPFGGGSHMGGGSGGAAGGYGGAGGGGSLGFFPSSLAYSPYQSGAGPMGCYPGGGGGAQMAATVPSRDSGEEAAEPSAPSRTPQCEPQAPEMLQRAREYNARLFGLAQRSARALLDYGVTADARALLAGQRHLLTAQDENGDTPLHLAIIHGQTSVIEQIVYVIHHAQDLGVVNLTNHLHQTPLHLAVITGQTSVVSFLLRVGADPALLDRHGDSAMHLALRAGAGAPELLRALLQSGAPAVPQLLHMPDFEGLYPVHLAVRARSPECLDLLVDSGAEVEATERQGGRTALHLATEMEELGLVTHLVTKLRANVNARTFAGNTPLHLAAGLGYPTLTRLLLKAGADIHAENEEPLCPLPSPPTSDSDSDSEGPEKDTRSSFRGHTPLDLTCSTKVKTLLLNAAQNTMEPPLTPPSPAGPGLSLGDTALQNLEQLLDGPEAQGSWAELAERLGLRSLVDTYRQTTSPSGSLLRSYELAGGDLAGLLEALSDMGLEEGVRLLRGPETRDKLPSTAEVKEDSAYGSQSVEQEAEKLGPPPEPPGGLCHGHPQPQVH
T1 sequence (Q04206 whole entry, looked up): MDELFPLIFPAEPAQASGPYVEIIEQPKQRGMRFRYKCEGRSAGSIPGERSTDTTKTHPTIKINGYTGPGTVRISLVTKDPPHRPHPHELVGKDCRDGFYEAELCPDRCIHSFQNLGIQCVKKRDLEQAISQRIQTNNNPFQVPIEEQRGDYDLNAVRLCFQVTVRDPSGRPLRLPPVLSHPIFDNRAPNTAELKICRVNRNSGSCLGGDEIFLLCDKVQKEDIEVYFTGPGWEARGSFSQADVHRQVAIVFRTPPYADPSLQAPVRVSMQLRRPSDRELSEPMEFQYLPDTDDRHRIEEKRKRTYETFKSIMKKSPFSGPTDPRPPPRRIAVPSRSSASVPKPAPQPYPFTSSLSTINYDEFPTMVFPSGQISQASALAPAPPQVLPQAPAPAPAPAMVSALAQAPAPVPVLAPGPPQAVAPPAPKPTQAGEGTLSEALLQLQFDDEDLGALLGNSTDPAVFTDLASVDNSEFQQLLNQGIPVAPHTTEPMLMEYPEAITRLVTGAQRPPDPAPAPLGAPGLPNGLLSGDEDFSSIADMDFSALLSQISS

`CCOC(=O)CC[C@@H](NC(=O)[C@H](C)NC(=O)[C@@H](C)O[C@H]1[C@H](O)[C@@H](CO)O[C@@H](O)[C@@H]1NC(C)=O)C(=O)OCC` gave a fold change (FC) [1] of 2.3, a fold change (FC) [2] of 6.5 and a fold change (FC) [3] of 2.3. The fold change (FC) [4] was 4.7.

`CC(=O)N[C@@H]1[C@@H](O[C@H](C)C(=O)N[C@@H](C)C(=O)N[C@H](CCC(=O)O)C(=O)OCCc2ccccc2)[C@H](O)[C@@H](CO)O[C@H]1O` showed a fold change (FC) [1] of 5.6, a fold change (FC) [2] of 6 and a fold change (FC) [3] of 5.6. The fold change (FC) [4] was 7.

`CCCCCCCCCCCCCCCCCCCC(=O)NC[C@H]1O[C@@H](O)[C@H](N)[C@@H](O[C@H](C)C(=O)N[C@@H](C)C(=O)N[C@H](CCC(=O)O)C(N)=O)[C@@H]1O.Cl` was tested, and the Activity (Cavia porcellus [5]) was 8 mm.

`CCCCCCCCCCCCCCCCCC(=O)NC[C@H]1O[C@@H](O)[C@H](N)[C@@H](O[C@H](C)C(=O)N[C@H](C(=O)N[C@H](CCC(=O)O)C(N)=O)C(C)C)[C@@H]1O` was tested, and the Activity (Cavia porcellus [5]) was 4.3 mm.

Work on `CCCCCCCCCCCCCCCCOC(=O)[C@@H](CCC(=O)O)NC(=O)[C@H](C)NC(=O)[C@@H](C)O[C@H]1[C@H](O)[C@@H](CO)O[C@@H](O)[C@@H]1NC(C)=O` yielded a fold change (FC) [1] of 5.3, a fold change (FC) [2] of 4.9 and a fold change (FC) [3] of 5.3. It also gave a fold change (FC) [4] of 7.

Compound `CC(=O)N[C@@H]1[C@@H](O[C@H](C)C(=O)N[C@@H](C)C(=O)N[C@H](CCC(=O)O)C(=O)NCC(F)(F)C(F)(F)F)[C@H](O)[C@@H](CO)O[C@H]1O` has a fold change (FC) [1] of 0.8, a fold change (FC) [2] of 2.4 and a fold change (FC) [3] of 0.8. It also gave a fold change (FC) [4] of 0.9.

`CC(=O)N[C@@H]1[C@@H](O[C@H](C)C(=O)N[C@H](C(=O)N[C@H](CCC(=O)O)C(N)=O)C(C)C)[C@H](O)[C@@H](CO)O[C@H]1O` showed an Activity (Cavia porcellus [5]) of 25.2 mm and an Activity (Cavia porcellus [6]) of 24.6 mm.

`CCCCOC(=O)[C@@H](CCC(=O)O)NC(=O)[C@H](C)NC(=O)[C@@H](C)O[C@H]1[C@H](O)[C@@H](CO)O[C@@H](O)[C@@H]1NC(C)=O` gave a fold change (FC) [1] of 4.7, a fold change (FC) [2] of 7.8 and a fold change (FC) [3] of 4.7. The fold change (FC) [4] was 7.1.

With `CCCCCCCCCCCCCCCCCCCCOC(=O)[C@@H](CCC(=O)O)NC(=O)[C@H](C)NC(=O)[C@@H](C)O[C@H]1[C@H](O)[C@@H](CO)O[C@@H](O)[C@@H]1NC(C)=O` the fold change (FC) [1] was 5.7, the fold change (FC) [2] was 5.7 and the fold change (FC) [3] was 5.7. It also gave a fold change (FC) [4] of 7.35.

With `COCC(=O)N[C@@H]1[C@@H](O[C@H](C)C(=O)N[C@@H](C)C(=O)N[C@H](CCC(=O)O)C(N)=O)[C@H](O)[C@@H](CO)O[C@H]1O` the fold change (FC) [7] was 4.4.

Compound `C[C@H](NC(=O)[C@@H](C)O[C@H]1[C@H](O)[C@@H](CO)O[C@@H](OCCCCN)[C@@H]1NC(=O)CO)C(=O)N[C@H](CCC(=O)O)C(N)=O` has a fold change (FC) [7] of 5.

With `CCCCCCCCC(=O)N[C@H]1[C@H](OC)O[C@H](CO)[C@@H](O)[C@@H]1O[C@H](C)C(=O)N[C@@H](C)C(=O)N[C@H](CCC(=O)O)C(N)=O` the fold change (FC) [7] was 4.3.

With `CCCCC(=O)N[C@H]1[C@H](OC)O[C@H](CO)[C@@H](O)[C@@H]1O[C@H](C)C(=O)N[C@@H](C)C(=O)N[C@H](CCC(=O)O)C(N)=O` the fold change (FC) [7] was 5.25.

`CCCCCCCCOC(=O)[C@@H](CCC(=O)O)NC(=O)[C@H](C)NC(=O)[C@@H](C)O[C@H]1[C@H](O)[C@@H](CO)O[C@@H](O)[C@@H]1NC(C)=O` was tested, and the fold change (FC) [1] was 6.1, the fold change (FC) [2] was 6.3 and the fold change (FC) [3] was 6.1. The fold change (FC) [4] was 6.9.

For `CCCCCCCCC(=O)N[C@@H]1[C@@H](O[C@H](C)C(=O)N[C@@H](C)C(=O)N[C@H](CCC(=O)O)C(N)=O)[C@H](O)[C@@H](CO)O[C@H]1O`, the fold change (FC) [7] was 2.4.

`CCCCCCCCCCCCCCCCCC(=O)NC[C@H]1O[C@@H](O)[C@H](NC(C)=O)[C@@H](O[C@H](C)C(=O)N[C@H](C(=O)N[C@H](CCC(=O)O)C(N)=O)C(C)C)[C@@H]1O` showed an Activity (Cavia porcellus [5]) of 22.5 mm and an Activity (Cavia porcellus [6]) of 18.5 mm.

For `CCOC(=O)CC[C@@H](NC(=O)[C@H](C)NC(=O)[C@@H](C)O[C@H]1[C@H](O)[C@@H](CO)O[C@@H](O)[C@@H]1NC(C)=O)C(N)=O`, the fold change (FC) [1] was 1.6, the fold change (FC) [2] was 5.6 and the fold change (FC) [3] was 1.6. It also gave a fold change (FC) [4] of 2.8.

`C[C@H](NC(=O)[C@@H](C)O[C@H]1[C@H](O)[C@@H](CO)O[C@@H](O)[C@@H]1NC(=O)Cc1ccccc1)C(=O)N[C@H](CCC(=O)O)C(N)=O` was tested, and the fold change (FC) [7] was 3.85.

`CC(=O)N[C@@H]1[C@@H](O[C@H](C)C(=O)N[C@H](C(=O)N[C@H](CCC(=O)O)C(N)=O)C(C)C)[C@H](O)[C@@H](CN)O[C@H]1O` showed an Activity (Cavia porcellus [5]) of 20.4 mm and an Activity (Cavia porcellus [6]) of 15.3 mm.

Compound `CC(=O)N[C@@H]1[C@@H](O[C@H](C)C(=O)N[C@@H](C)C(=O)N[C@H](CCC(=O)O)C(=O)NC2CCCCC2)[C@H](O)[C@@H](CO)O[C@H]1O` has a fold change (FC) [1] of 1, a fold change (FC) [2] of 2.9 and a fold change (FC) [3] of 1. The fold change (FC) [4] was 1.

For `CO[C@@H]1O[C@H](CO)[C@@H](O)[C@H](O[C@H](C)C(=O)N[C@@H](C)C(=O)N[C@H](CCC(=O)O)C(N)=O)[C@H]1N`, the fold change (FC) [7] was 6.2.
